Reference: patent publication US8808500B2, “Method for the use of oxidants for microbial control under reducing conditions” (Lonza Inc., priority 2011, dated 2014)

Legend:
[1] = Residual total halogen (DPD) after adding sodium hypochlorite to borohydride solution; assay type: physicochemical; settings: for Total Halogen with DMDMH: borohydride solution treated with DMDMH; for Total Halogen without DMDMH: borohydride solution, no DMDMH
Experimental: The remaining halogen concentration was then measured by standard DPD total halogen methodologies over time.
(§1) For comparison, the residual total halogen (as Cl2) was analyzed without the use of dimethyloldimethylhydantoin.

[2] = ORP of sodium borohydride solution over time after adding aldehyde donor; assay type: physicochemical
Experimental: Aqueous solutions containing sodium borohydride were mixed at 21° C. to obtain a solution having an initial borohydride content (as NaBH4) of 30-50 ppm, an alkalinity (as CaCO3) of 400 ppm, and a pH of 8.5-9.5. The temperature of the solution was maintained at 21° C. and the ORP of the solution was measured at specified time intervals. The procedure consisted of adding a known amount of aldehyde donor, such as dimethyloldimethylhydantoin or glyoxal, to the samples at a known molar ratio with respect to the borohydride content and following the time-dependence of the ORP.
as §1

[3] = 2 min after addition of sodium hypochlorite
[4] = 43 min after addition of sodium hypochlorite

SMILES | Total Halogen with DMDMH [1, 3] | Total Halogen with DMDMH [1, 4] | ORP - DMDMH treated [2, 3] | ORP - DMDMH treated [2, 4] | Total Halogen without DMDMH [1, 3] | Total Halogen without DMDMH [1, 4]
CC1(C)C(=O)N(CO)C(=O)N1CO [DMDMH, dimethyloldimethylhydantoin] | 1.59 ppm as Cl2 | 1.33 ppm as Cl2 | −251 mV | −77 mV |  | 
OCl [sodium hypochlorite, reference compound] |  |  |  |  | <0.1 ppm as Cl2 | <0.1 ppm as Cl2
